Values joined by “and” are separate entries in the source; they are usually repeats but may differ in a detail not shown here. Equal entries are not always repeated. Where two headings read alike, the source gives them in different places.
Tested on: amyloid precursor protein (APP) proteolysis
Assay: Repressor Release Assay (RRA)
Assay type: cell-based
Settings: for fold induction at 20 µg/mL / fold induction at 10 µg/mL: read-out: APPI Fold Increase
Description: The beta amyloid inhibitory activity of many of the compounds of the present invention has been determined using the Repressor Release Assay (RRA). See, Table 23 below. A compound is considered active in RRA if it leads to at least a 1.5 fold increase in luciferase activity at 20 μM and is non-toxic.
The compounds generated as described in Examples 1 through 220 were tested in the RRA in accordance with published techniques [Shuey, D. J., Sheiffele, P., Jones, D., Cockett, M. I., and Quinet, E. M. (1999), “Repressor release: a useful tool for monitoring amyloid precursor protein (APP) proteolysis in mammalian cells”, Society for Neuroscience Abstracts, Vol. 25, 29th Annual Meeting of Society for Neuroscience, Miami Beach, Fla., Oct. 23-28, 1999]. Briefly, this assay is performed as follows.
CHO-K1 cells are cultured in whole DMEM media (DMEM—High Glucose with 10% fetal bovine serum, 1% Non-essential Amino Acids, and 1% Penicillin-Streptomycin) at 37° C. with 5% CO2. Two million cells are plated into 10-cm dishes 24 hrs prior to transfection.
Transient transfections are completed as recommended by Gibco BRL using their Lipofectamine Plus system. First, 6 μg of pRSVO-luc and 6 μg of APP-lacI construct DNA are added to 460 μL Opti-Mem transfection media and incubated with 30 μL Plus reagent for 15 minutes. Then, a lipid mixture of 40 μL Lipofectamine reagent and 460 μL Opti-Mem transfection media is incubated with the DNA-Plus reagent mixture for 15 minutes. During the DNA-lipid incubation, the CHO-K1 cells are washed once and covered in 5.0 mL DMEM media without Penicillin-Streptomycin. The DNA-lipid preparation is then layered onto these cells and incubated at 37° C. overnight.
One and one half million transfected cells per well (100 μL total volume) are plated into sterile, opaque Packard 96-well Cultur-Plates in clear DMEM whole media (DMEM—without phenol red) and incubated at 37° C. with 5% CO2 for 3-5 hours.
Compounds are diluted using two different protocols; one protocol is used for compounds supplied neat (weighed powder in vial) and the other protocol is used for compounds supplied in solution (20 mM in DMSO in 96-well plates). For both protocols, 25 mM Hepes and 25 mM Hepes/1% DMSO are prepared fresh to be used as diluent. The Hepes/DMSO is used as the diluent control on all experimental plates.
The following table depicts the steps for compound dilution (please note that the last step is the addition of compound to cells/media in tissue culture plate):
Because some compounds arrive in 96-well format at 20 mM, the following represents the protocol for their dilution (note that an average molecular weight of these compounds was used to calculate these dilutions and as above, the last step is the addition of compound to cells/media in tissue culture plate):
Once compounds are diluted, they are applied in duplicate on cells in tissue culture plates (prepared above). Cells are incubated with compound at 37° C. with 5% CO2 for an additional 36-48 hours.
Luciferase assays (LucLite reagent, Packard) are performed and are read on a Packard TopCount instrument. Media is removed from each 96-well plate and replaced with 100 μL PBS per well (with Mg^2+ and Ca^2+). An equal volume (100 μL) of the LucLite lysis/substrate buffer is added to each well and the plates are sealed and mixed in the dark on a rotary shaker for 15-30 minutes at room temperature. Luciferase readings are then taken on the TopCount instrument. Measurements are expressed as relative light units (RLU) and are calculated and analyzed in MS Excel as follows.
A compound is considered active in RRA if it leads to at least a 1.5 fold increase in luciferase activity at 20 μM and is non-toxic, as determined by loss of signal (≦0.75 fold increase). Fold increase is the amount of luciferase activity (measured in relative light units) over diluent control. SEM represents the standard error of the mean for fold increase (not shown).

[1] = Conc 20 μg/mL, luciferase activity over diluent control
[2] = Conc 10 μg/mL, luciferase activity over diluent control
[3] = Conc 3 μg/mL, luciferase activity over diluent control

Row | SMILES | fold induction at 20 µg/mL [1] | further results
1 | CC(C)(CO)NS(=O)(=O)c1ccc(Br)s1 [Example 107, 5-bromo-N-(2-hydroxy-1,1-dimethylethyl)thiophene-2-sulfonamide] | 1.5 | 
2 | C/C=C(\C)C(O)(/C(C)=C/C)[C@@H](NS(=O)(=O)c1ccc(Cl)s1)[C@@H](C)CC (stereo partly drawn) [Example 170, 5-chloro-N-{(S,E)-2-hydroxy-3-methyl-2-[(E)-1-methylprop-1-enyl]-1-[(S)-1-methylpropyl]pent-3-enyl}thiophene-2-sulfonamide] |  | fold induction at 10 µg/mL [2]: 1.95
3 | CCCCCC(NCCO)[C@@H](CO)NS(=O)(=O)c1ccc(Cl)s1 (stereo partly drawn) [Example 83, 5-chloro-N-[(1S)-2-[(2-hydroxyethyl)amino]-1-(hydroxymethyl)heptyl]-2-thiophenesulfonamide] | 1.7 | 
4 | CC[C@H](C)[C@@H](CO)NS(=O)(=O)c1cccs1 [Example 7, N-[(1S,2S)-1-(hydroxymethyl)-2-methylbutyl]thiophene-2-sulfonamide] |  | APPI Fold Increase [1]: 3.2 fold
5 | CCCCC[C@H](CC(C)C)[C@@H](CO)NS(=O)(=O)c1ccc(Cl)s1 [Example 42, 5-chloro-N-[(1S,2R)-1-(hydroxymethyl)-2-isobutylheptyl]thiophene-2-sulfonamide] | 3.4 | 
6 | O=S(=O)(NC1(CO)Cc2ccccc2C1)c1ccc(Cl)s1 [Example 180] |  | APPI Fold Increase [1]: 2.3 fold
7 | CC(C)(C)[C@@H](CO)NS(=O)(=O)c1ccc(Br)s1 [Example 113] |  | APPI Fold Increase [2]: 2.86 fold
8 | CC(C)CC(CO)NS(=O)(=O)c1ccc(Br)s1 (stereo not drawn) [Example 105] |  | APPI Fold Increase (Conc 1 μg/mL, luciferase activity over diluent control): 1.57 fold; APPI Fold Increase [3]: 2.23 fold; APPI Fold Increase [2]: 3.93 fold; APPI Fold Increase [1]: 2.4 fold and 1.5 fold
9 | CC[C@H](C)[C@H](NS(=O)(=O)c1cccs1)C(O)c1ccc(SC)cc1 (stereo partly drawn) [Example 153, N-((S,S)-1-{hydroxy[4-(methylthio)phenyl]methyl}-2-methylbutyl)thiophene-2-sulfonamide] |  | fold induction at 10 µg/mL [2]: 2.09
10 | C=C(C)C(O)C(NS(=O)(=O)c1ccc(Cl)s1)C(C)CC (mixture of isomers) [Example 133] |  | APPI Fold Increase [2]: 2.51 fold and 1.68 fold
11 | CC(NCCO)[C@@H](CO)NS(=O)(=O)c1ccc(Cl)s1 (stereo partly drawn) [Example 81, 5-chloro-N-[(1S)-2-[(2-hydroxyethyl)amino]-1-(hydroxymethyl)propyl]-2-thiophenesulfonamide] | 1.5 | 
12 | CC(c1ccccc1)C(CO)NS(=O)(=O)c1ccc(Cl)s1 (mixture of isomers) [Example 14] |  | APPI Fold Increase [3]: 1.87 fold and 3.33 fold; APPI Fold Increase [2]: 3.45 fold
13 | CC[C@H](C)[C@H](NS(=O)(=O)c1ccc(Cl)s1)C(O)(c1ccc(Cl)cc1)c1ccc(Cl)cc1 [Example 167, N-{(S,S)-1-[bis(4-chlorophenyl)(hydroxy)methyl]-2-methylbutyl}-5-chlorothiophene-2-sulfonamide] |  | fold induction at 10 µg/mL [2]: 3.42
14 | CCC[C@H](CC(C)C)[C@@H](CO)NS(=O)(=O)c1ccc(Cl)s1 [Example 35, 5-chloro-N-[(1S,2R)-1-(hydroxymethyl)-4-methyl-2-propylpentyl]thiophene-2-sulfonamide] | 3.7 | 
15 | CCCCC[C@H](CC)[C@@H](CO)NS(=O)(=O)c1ccc(Cl)s1 [Example 41, 5-chloro-N-[(1S,2S)-2-ethyl-1-(hydroxymethyl)heptyl]thiophene-2-sulfonamide] | 4.7 | 
16 | CCCCC[C@H](CC(C)C)[C@@H](CO)NS(=O)(=O)c1ccc(Br)s1 [Example 63, 5-bromo-N-[(1S,2R)-1-(hydroxymethyl)-2-isobutylheptyl]thiophene-2-sulfonamide] | 3.3 | 

Row | SMILES | fold induction at 20 µg/mL [1] | further results
17 | O=S(=O)(N[C@H](CO)C1CCC(NCc2ccncc2)CC1)c1ccc(Cl)s1 (stereo partly drawn) [Example 218, 5-chloro-N-[(S)-2-hydroxy-1-(4-(4-pyridyl)methylaminocyclohexyl)ethyl]thiophene-2-sulfonamide] | 2.8 | 
18 | C[C@@H](O)[C@@H](CO)NS(=O)(=O)c1ccc(Cl)s1 [Example 103, 5-chloro-N-[(R,R)-2-hydroxy-1-(hydroxymethyl)propyl]thiophene-2-sulfonamide] | 2.3 | 
19 | CCC(NCc1ccccc1)[C@@H](CO)NS(=O)(=O)c1ccc(Cl)s1 (stereo partly drawn) [Example 85, N-[(1S)-2-(benzylamino)-1-(hydroxymethyl)butyl]-5-chloro-2-thiophenesulfonamide] | 8.9 | 
20 | CCC(CC)[C@@H](C=O)NS(=O)(=O)c1ccc(Cl)s1 [Example 221A, 5-Chloro-N-[(S)-2-ethyl-1-formylbutyl]thiophene-2-sulfonamide] | 4.9 | 
21 | CC[C@H](C)[C@H](NS(=O)(=O)c1ccc(Cl)s1)C(O)C(F)(F)F (stereo partly drawn) [Example 196, 5-Chloro-N-[(S,S)-2-methyl-1-(2,2,2-trifluoro-1-hydroxyethyl)butyl]thiophene-2-sulfonamide] | 20.7 | 
22 | CC[C@H](C)[C@H](NS(=O)(=O)c1ccc(Cl)s1)C(O)(c1ccc(OC)cc1)c1ccc(OC)cc1 [Example 169, 5-chloro-N-((S,S)-1-{hydroxy[bis(4-methoxyphenyl)]methyl}-2-methylbutyl)thiophene-2-sulfonamide] |  | fold induction at 10 µg/mL [2]: 1.51
23 | C=CCCC(O)(CCC=C)[C@@H](NS(=O)(=O)c1ccc(Br)s1)[C@@H](C)CC [Example 176, 5-bromo-N-{(S)-2-but-3-enyl-2-hydroxy-1-[(S)-1-methylpropyl]hex-5-enyl}thiophene-2-sulfonamide] |  | fold induction at 10 µg/mL [2]: 1.52
24 | CC[C@H](C)[C@@H](CO)NS(=O)(=O)c1ccc(F)s1 [Example 208, 5-Fluoro-N-[(1S,2S)-1-(hydroxymethyl)-2-methylbutyl]-2-thiophenesulfonamide] | 16.5 | 
25 | CCC(C)C(C)C(CO)NS(=O)(=O)c1ccc(Cl)s1 (stereo not drawn) [Example 19, 5-Chloro-N-[1-(hydroxymethyl)-2,3-dimethylpentyl]thiophene-2-sulfonamide] | 6 | 
26 | C[C@@H](O)[C@@H](CO)NS(=O)(=O)c1ccc(Br)s1 [Example 117, 5-bromo-N-[(R,R)-2-hydroxy-1-(hydroxymethyl)propyl]thiophene-2-sulfonamide] | 2.6 | 
27 | CCCCCC[C@@H](CCCCC)[C@@H](CO)NS(=O)(=O)c1ccc(Cl)s1 [Example 44, 5-chloro-N-[(1S,2R)-1-(hydroxymethyl)-2-pentyloctyl]thiophene-2-sulfonamide] | 1.6 | 
28 | CCCC(C)C(CO)NS(=O)(=O)c1ccc(Cl)s1 (stereo not drawn) [Example 20, 5-chloro-N-[1-(hydroxymethyl)-2-methylpentyl]thiophene-2-sulfonamide] |  | fold induction at 20 µg/mL: 5
29 | CCCCCC[C@@H](CCC)[C@@H](CO)NS(=O)(=O)c1ccc(Cl)s1 [Example 37, 5-chloro-N-[(1S,2R)-1-(hydroxymethyl)-2-propyloctyl]thiophene-2-sulfonamide] | 4.8 | 
30 | CCC[C@H](C)[C@@H](CO)NS(=O)(=O)c1ccc(Cl)s1 [Example 33, 5-chloro-N-[(1S,2S)-1-(hydroxymethyl)-2-methylpentyl]thiophene-2-sulfonamide] | 6.5 | 
31 | C=CCCC(O)[C@@H](NS(=O)(=O)c1cccs1)[C@@H](C)CC (stereo partly drawn) [Example 151, N-{(S)-2-hydroxy-1-[(S)-1-methylpropyl]hex-5-enyl}thiophene-2-sulfonamide] |  | fold induction at 10 µg/mL [2]: 1.94
32 | CC(C)[C@@](C)(CO)NS(=O)(=O)c1ccc(Br)s1 [Example 25, 5-Bromo-N-[(1S)-1-(hydroxymethyl)-1,2-dimethylpropyl]thiophene-2-sulfonamide] | 7.5 | 

Reference: patent publication US6878742B2, “Heterocyclic sulfonamide inhibitors of beta amyloid production” (Wyeth, priority 2000, dated 2005)
